# Laboratory results as given in US20100016319A1, “ARYLMETHYLENE UREA DERIVATIVE AND USE THEREOF” (TORAY INDUSTRIES, INC. a corporation of Japan, priority 2005, published 2010).
# Key:
# [1] = test system: TNFα production in human whole blood; assay: Inhibitory activity on LPS-induced TNFα production in human whole blood; format: cell-based; details: LPS stimulation, 37° C., 5 hours
# Experimental: Inhibitory activities of the arylmethylene urea derivatives according to the present invention to the production of TNFα induced by stimulation with a lipopolysaccharide (LPS) were investigated using human whole blood.
# After mixing each of the compounds of the present invention with human blood in a 96-well flat-bottom plate, the lipopolysaccharide (LPS) was added and the mixture was allowed to react at 37° C. for 5 hours. After the reaction, the resulting mixture was centrifuged at room temperature for 15 minutes, and supernatant of the resultant was recovered. For the quantification of TNFα in the supernatant, human cytokine kit (CIS biointernational) was used.
# DSS-induced colitis = assay: Dextran sulfate sodium (DSS)-induced colitis model of mice, rectal bleeding score; format: in vivo, BALB/c mice; details: 30 mg/kg orally every day from Day 27 to Day 31
# Experimental: (§1) Female BALB/c mice (Japan SLC) of 7 to 9 weeks old were allowed to freely drink 3 w/v % dextran sulfate sodium (DSS) for 5 to 7 days, and then to freely drink sterilized distilled water for 5 days. This procedure was repeated 3 times to induce colitis. The uninduced (background) group was allowed to freely drink sterilized distilled water. The compound described in Example 2 was orally administered to the mice at a dose of 30 mg/kg every day from Day 27 to Day 31 counted from the start of the test, and rectal bleeding was scored (0: occult blood-negative, 2: occult blood-positive, 4: apparent bleeding) by using the method described by Murthy et al (see, for example, Dig Dis Sci., 38, 1722 (1993)).
# (§2) On the other hand, the same test as in Example 452 was repeated except that 1-(4-(pyridin-4-yloxy)benzyl)-3-(3-t-butylisoxazol-5-yl)urea (the structural formula thereof is shown below) which is a compound included in WO 04/037789 was used in place of the compound of Example 2. The score on Day 32 (the last day of the test) of the colitis-uninduced group was 0, while the score of the colitis-induced group rose to 1.2±0.2.
# as §1, with “Example 10” for “Example 2”
# as §2, with “Example 453” for “Example 452”, “that 1-(4-(pyridin-4-yloxy)benzyl)-3-([…])urea” for “that 1-(4-(pyridin-4-yloxy)benzyl)-3-(3-t-butylisoxazol-5-yl)urea”, “Example 10.” for “Example 2.”
# [2] = test system: rhythmic bladder contractions; assay: Rhythmic bladder contractions model in anesthetized rats; format: in vivo, SD rats; details: i.v., from a dose of 3 mg/kg; 10 minutes before and after administration; FIG. 1
# Excerpt: Using anesthetized rat rhythmic bladder contractions model, the inhibitory effect of the arylmethylene urea derivatives of the present invention on the detrusor hyperreflexia was investigated.
# Female SD rats were anesthetized with an intraperitoneal injection of urethane (1.0 g/kg). A polyethylene tube was inserted from external urethral orifice into the bladder and the tube was fixed by ligating. The other end of the tube was equipped with a three-necked cock, and one of the necks thereof was connected to a pressure transducer for the measurement of intravesical pressure and the other neck was connected to a syringe for the infusion of physiological saline into the bladder. Thirty minutes after the surgery was completed, physiological saline in appropriate volume was infused via the tube in order to induce rhythmic bladder contractions. After stable rhythmic bladder contractions were obtained, a solution of each test compound or the solvent thereof was administered from a caudal vein in a volume of 0.5 mL/kg, and the effect on the frequency of bladder contractions was investigated. As the test compounds, the compounds of Examples 2 and 9 were used.
# In each of the figures, the ordinate indicates the number of rhythmic bladder contractions for 10 minutes before and after administration of the compound.
# [3] = test system: cyclophosphamide-induced cystitis rats; assay: Cyclophosphamide-induced overactive bladder (cystitis) model in rats, cystometrogram; format: in vivo, SD rats; details: i.v., from a dose of 3 mg/kg; FIG. 3-A
# Experimental: Using cyclophosphamide-induced cystitis rats known as an overactive bladder (pollakiuria) model based on the hyperactivity of afferent sensory C-fibers, the effect of compounds on the cystometrograms was investigated.
# Female SD rats were pre-treated with cyclophosphamide (150 mg/kg) intraperitoneally one day before (18 hours before) the assay in order to induce cystitis. On the next day, each of rats was anesthetized with an intrapertoneral injection of urethane (1.0 g/kg). Next, a small incision was formed in the hypogastrium, and both ureters were ligated, followed by forming small incision in the ureters at the side of the kidney. Then, the bladder apex was incised and a polyethylene tube filled with physiological saline was inserted and indwelled. The other end of the tube was equipped with a three-necked cock, and one of the necks thereof was connected to a pressure transducer for the measurement of intravesical pressure and the other neck was connected to an infusion pomp in order to infuse physiological saline. Thirty minutes after the surgery was completed, physiological saline was continuously infused (3.6 mL/hr) in order to obtain a continuous cystometrograms. One minute before the infusion, a solution of each test compound or the solvent thereof was administered from a caudal vein in a volume of 0.5 mL/kg. […]
structure (smiles),measurement,setting,value
"Cc1ccc(-n2nc(C(C)(C)C)cc2NC(=O)NCc2ccccc2Oc2ccnc(N3CCOCC3)n2)cc1 [Example 2, 1-(2-(2-morpholinopyrimidin-4-yloxy)benzyl)-3-(3-t-butyl-1-p-tolyl-1H-pyrazol-5-yl)urea]",IC50,[1],720 nM
same,amelioration of symptoms / improvement in the rectal bleeding score (in words),DSS-induced colitis; Day 32,apparent amelioration of symptoms was observed
same,"rectal bleeding score on Day 32 (0: occult blood-negative, 2: occult blood-positive, 4: apparent bleeding)","DSS-induced colitis; female BALB/c mice, 3 w/v % DSS",0.2±0.1
same,effect on the number of rhythmic bladder contractions,[2],inhibited the rhythmic bladder contractions dose-dependently
same,effect on the increase in the frequency of urination (voiding episodes during 20 minutes),[3],dose-dependently reduced the increase in the frequency of urination
